Measured values published in patent publication US4159384A, “Phenenyltris (carbonylimino)multi-anionic substituted triphenyl acids and salts” (American Cyanamid Company, priority 1978, dated 1979).
Counter-ions that a name gives are not always drawn.

Test system: shunt pathway
Experiment: Test, Code 036 (C-Shunt inhibitor): lysis of fragile human erythrocytes in autologous serum, cobra venom factor
Type: biochemical
Settings: in vitro, appropriate dilutions of the test compound
Description: An active inhibitor protects C2 from C1 and C4; (ii) Test, Code 035 (C3-C9 inhibitor)--This test determines the ability of the late components of human complement (C3-C9) to lyse EAC 142 in the presence of appropriate dilutions of the test compound. An active inhibitor protects EAC 142 from lysis by human C3-C9; (iii) Test, Code 036 (C-Shunt inhibitor)--In this test human erythrocytes rendered fragile are lysed in autologous serum via the shunt pathway activated by cobra venom factor in the presence of appropriate dilutions of the test compound. Inhibition of the shunt pathway results in failure of lysis; (iv) Forssman Vasculitis Test--Here, the well known complement dependent lesion, Forssman vasculitis, is produced in guinea pigs by intradermal injection of rabbit anti-Forssman antiserum. […]

O=C(Nc1cc(C(=O)O)c(O)c(S(=O)(=O)O)c1)c1cc(C(=O)Nc2cc(C(=O)O)c(O)c(S(=O)(=O)O)c2)cc(C(=O)Nc2cc(C(=O)O)c(O)c(S(=O)(=O)O)c2)c1 [5,5',5"-[s-Phenenyltris(carbonylimino)]tri-3-sulfo salicylic acid trisodium salt]
Shunt Inhibition 036 Wells: +1 Wells
